Source: patent US10575526B2 (priority 2004, dated 2020)

How the values were obtained:
[1] = system: leaf rust spores (Puccinia triticina); assay: Leaf rust infection of treated glyphosate tolerant wheat in the SAR study; type: in vivo; conditions: glyphosate tolerant wheat inoculated one day after treatment; WeatherMAX 0.75 lb/acre, INA 200 ppm
[2] = system: SAR genes, WIR2 (PR5) and WCI3; assay: Time-course Northern blot analysis of SAR gene induction in glyphosate tolerant wheat; conditions: leaf tissues of glyphosate tolerant wheat; INA 200 ppm in 0.1% surfactant blank
[3] = Glyphosate residue analysis in RR potato; type: in vivo; conditions: tubers
Source text: (§1) The selection of application rates that are effective for a specific plant pathogen is within the skill of the ordinary agricultural scientist. […] Useful application rates for the glyphosate compositions employed can depend upon all of the above conditions.

[4] = system: Asian soybean rust; assay: Field trial of glyphosate and Opera fungicide on Asian soybean rust; type: in vivo, Phakopsora pachyrhizi
Protocol: A field study was conducted to further confirm the greenhouse study. The same cultivars were planted in three replicated plots and treatments as described in the greenhouse study. […] All treatments were effective in preventing disease on RR8045 cultivar.

[5] = Glyphosate residue analysis in RR soybean; type: in vivo; conditions: 3 × 0.75 lb, V3/R1/PH
Source text: as §1

[6] = Glyphosate residue analysis in RR sugarbeet; type: in vivo
Source text: as §1

[7] = system: Phytophthora; assay: In vitro fungal cell growth on media containing glyphosate; type: cell-based; conditions: crop of interest Potato/soy
[8] = system: Puccinia spores; assay: Translocation of glyphosate to shielded wheat leaf for leaf rust prevention; type: in vivo
Source text: In the data shown in FIG. 1, the top fully expanded wheat leaf was shielded from Roundup® spray (0-1×, 1× at 0.75 lb ae/a) followed by inoculation of wheat rust spores to the shielded leaf at 1 day after treatment (DAT).
14C-glyphosate is sprayed over-the-top to wheat plants using field application conditions and use rates. The top fully-expanded leaf (one leaf) is shielded from the spray (the untreated leaf).

[9] = system: Verticillium wilt (Verticillium dahliae); assay: Verticillium wilt control in Roundup Ready cotton; type: in vivo; conditions: three genetic backgrounds, 22 ounces of WeatherMax Roundup at two and five true leaf stage, observed about three and four months after planting, versus adjacent untreated plot
Source text: The cotton seeds were planted and the emerged plants were sprayed with 22 ounces of WeatherMax Roundup® at the two and five true leaf stage. […] The treated plants continued to grow compared to the untreated plants that had shut down. […] Cotton plants suffering from other wilt diseases of cotton, especially Fusarium wilt disease, are expected to benefit from treatment with glyphosate.

[10] = system: Puccinia; assay: In vitro fungal cell growth on media containing glyphosate; type: cell-based; conditions: crop of interest Wheat
[11] = system: Asian soybean rust (Phakopsora pachyrhizi); assay: Field observation of Asian soybean rust in glyphosate tolerant soybean; type: in vivo; conditions: Brazil
Protocol: Asian soybean rust is an aggressive foliar disease of soybean that occurs where soybeans are grown in Asia, and more recently, in southern Africa, Paraguay, Argentina and Brazil. Phakopsora pachyrhizi, the fungus that causes Asian soybean rust, has been found in the continental United States. Glyphosate compositions are used to control, prevent or treat disease in glyphosate tolerant soybean plants (RR) under field conditions. A single application rate of Roundup® (1×=0.75 lbs ae/acre or 0.84 kg ae/ha) or multiple applications are applied times to a rust susceptible variety of soybean. The Roundup® treated plants are not treated with any fungicide and allowed to be naturally infected with Asian soybean rust. In addition, glyphosate-tolerant soybean plants can be grown in a greenhouse and manually infected with spores to induced disease infection.
Rust development is delayed 7-10 days in RR soybean (sprayed at ˜V4 stage), as compared to conventional soy. Rust severity is less in RR soybean as compared to conventional soybean in early season observations.

[12] = Glyphosate residue analysis in RR canola; type: in vivo; conditions: 0.8 lb, seed
Source text: as §1

[13] = system: Pseudocercosporella; assay: In vitro fungal cell growth on media containing glyphosate; type: cell-based; conditions: crop of interest Wheat
[14] = system: Asian soybean rust; assay: Greenhouse study of glyphosate and Opera fungicide on Asian soybean rust; type: in vivo, Phakopsora pachyrhizi
[15] = target: corn EPSPS; assay: Kinetic studies of EPSPS inhibition by glyphosate; type: biochemical; conditions: equivalent of 0.5 μM
Source text: Structural studies of EPSPS based on X-ray crystallography have identified key amino acids involved in catalysis.

[16] = system: Puccinia spores; assay: Tissue glyphosate concentration and disease prevention in glyphosate tolerant wheat; type: in vivo
Protocol: Four different regimens are employed. […] The inoculated plants are then incubated for 24 hours at 100% relative humidity for germination of the spores. […] Disease conditions are evaluated macroscopically for pustule development and lesion development.

[17] = system: Pyricularia; type: cell-based; conditions: growth media, crop of interest Rice
[18] = system: Gaeumannomyces; assay: In vitro fungal cell growth on media containing glyphosate; type: cell-based; conditions: crop of interest Wheat
[19] = Glyphosate residue analysis in RR rice; type: in vivo
Source text: as §1

[20] = system: rust spores; assay: Glyphosate as post-infection treatment of glyphosate tolerant wheat; type: in vivo; conditions: evaluated 11 DAI
Protocol: Depending on the treatment to be used, the spores are then allowed to germinate. […] Disease incidence is evaluated 11 DAI.

[21] = system: Common rust or Southern rust spores (Puccinia sorghi, Puccinia polysora); assay: Field tests of glyphosate on rust diseases of Roundup Ready corn nk603; type: in vivo; conditions: 1 to 9 scale
[22] = system: Septoria; assay: In vitro fungal cell growth on media containing glyphosate; type: cell-based; conditions: crop of interest Wheat
[23] = Glyphosate residue analysis in RR wheat; type: in vivo
Source text: as §1

[24] = Glyphosate residue analysis in RR corn (GA21); type: in vivo; conditions: 2 × 0.75 lb
Source text: as §1

[25] = target: corn EPSPS; conditions: read-out: Ki for glyphosate; cited from earlier work
[26] = system: Botrytis; assay: In vitro fungal cell growth on media containing glyphosate; type: cell-based; conditions: crop of interest Veg/strawberry
[27] = system: Fusarium; assay: as above; type: cell-based; conditions: crop of interest Wheat/potato
[28] = system: Rhizoctonia; assay: as above; type: cell-based; conditions: crop of interest Wheat/potato
[29] = Glyphosate residue analysis in RR cotton; type: in vivo; conditions: 3 × 1.5 lb, OT/PD/PH, seed
Source text: as §1

## O=C(O)c1cc(Cl)nc(Cl)c1 [INA, 2,6-dichloro isonicotinic acid]
[1]
  leaf rust infection / resistance: did not confer leaf rust resistance
[2]
  WCI3 gene induction (Northern blot): induced

## O=C(O)CNCP(=O)(O)O [glyphosate, N-phosphonomethylglycine]
[3]; 2 × 1.5 lb, 2 lf/row closure
  Gly (ppm): 4.10 ppm
[3]; 3 × 1.5 lb, 2 lf/row clo/PH
  Gly (ppm): 8.60 ppm
[4]; RR8000, glyp 1X
  %_disease: 23.3%
[4]; RR8000, glyp 2X
  %_disease: 10.0%
[4]; RR8045, glyp 1X
  %_disease: 0.0%
[4]; RR8045, glyp 2X
  %_disease: 1.7%
[5]; forage
  Gly (ppm): 7.60 ppm
[5]; hay
  Gly (ppm): 1.30 ppm
[5]; seed
  Gly (ppm): 0.80 ppm
[6]; 3 × 0.75, 2 lf/12 lf/12 lf + 30 d, beet
  Gly (ppm): 6.60 ppm
[6]; 3 × 0.75, 2 lf/12 lf/12 lf + 30 d, tops
  Gly (ppm): 4.30 ppm
[6]; 3 × 0.75 lb, 2 lf/6 lf/12 lf, beet
  Gly (ppm): 0.50 ppm
[6]; 3 × 0.75 lb, 2 lf/6 lf/12 lf, tops
  Gly (ppm): 0.40 ppm
[7]
  In vitro EC90, ppm: 1000 ppm
[8]; shielded (untreated) wheat leaf, spray application of ½× of Roundup, inoculated 1DAT
  tissue glyphosate at which complete disease prevention was attained: 1.3 ppm
[8]; shielded wheat leaf, 11 days after inoculation, 0-1× spray
  disease incidence versus spray dose: decrease in disease incidence with an increase in spray dose
[9]
  wilt symptoms: reduced symptoms
[10]
  In vitro EC90, ppm: 5000 ppm
[11]; RR soybean compared to conventional soybean, early season observations
  rust severity: less
[11]; RR soybean sprayed at ~V4 stage, compared to conventional soy
  delay of rust development: 7 to 10 days
[12]
  Gly (ppm): 0.02 ppm
[13]
  In vitro EC90, ppm: <100 ppm
[14]; RR8000, Trt 2 glyp 1X every two weeks from V3, 14 d-1 spray
  percent disease of Asian soybean rust: 23.3%
[14]; RR8000, Trt 2 glyp 1X every two weeks from V3, 28 d-2 sprays
  percent disease of Asian soybean rust: 41.7%
[14]; RR8000, Trt 2 glyp 1X every two weeks from V3, 42 d-3 sprays
  percent disease of Asian soybean rust: 48.3%
[14]; RR8000, Trt 2 glyp 1X every two weeks from V3, 56 d-4 sprays
  percent disease of Asian soybean rust: 88.3%
[14]; RR8000, Trt 3 glyp 2X every two weeks from V3, 14 d-1 spray
  percent disease of Asian soybean rust: 10.0%
[14]; RR8000, Trt 3 glyp 2X every two weeks from V3, 28 d-2 sprays
  percent disease of Asian soybean rust: 10.0%
[14]; RR8000, Trt 3 glyp 2X every two weeks from V3, 42 d-3 sprays
  percent disease of Asian soybean rust: 10.0%
[14]; RR8000, Trt 3 glyp 2X every two weeks from V3, 56 d-4 sprays
  percent disease of Asian soybean rust: 30.0%
[14]; RR8045, Trt 2 glyp 1X every two weeks from V3, 14 d-1 spray
  percent disease of Asian soybean rust: 50.0%
[14]; RR8045, Trt 2 glyp 1X every two weeks from V3, 28 d-2 sprays
  percent disease of Asian soybean rust: 56.7%
[14]; RR8045, Trt 2 glyp 1X every two weeks from V3, 42 d-3 sprays
  percent disease of Asian soybean rust: 71.7%
[14]; RR8045, Trt 2 glyp 1X every two weeks from V3, 56 d-4 sprays
  percent disease of Asian soybean rust: 86.7%
[14]; RR8045, Trt 3 glyp 2X every two weeks from V3, 14 d-1 spray
  percent disease of Asian soybean rust: 3.3%
[14]; RR8045, Trt 3 glyp 2X every two weeks from V3, 28 d-2 sprays
  percent disease of Asian soybean rust: 10.0%
[14]; RR8045, Trt 3 glyp 2X every two weeks from V3, 42 d-3 sprays
  percent disease of Asian soybean rust: 13.3%
[14]; RR8045, Trt 3 glyp 2X every two weeks from V3, 56 d-4 sprays
  percent disease of Asian soybean rust: 73.3%
[15]
  Ki expressed as glyphosate in plant tissues: approximately 0.15 ppm
[16]; 12 days after inoculation, wheat treated with 1× spray, inoculated 1 day or 14 days after treatment, controls about 25% to about 30%
  pustule development: less than 1%
[16]; glyphosate tolerant wheat leaf
  tissue concentration of glyphosate at which pustule development is prevented: about 10 ppm
[17]
  In vitro EC90, ppm: 5000 ppm
[18]
  In vitro EC90, ppm: 1000 ppm
[19]; 1.5 lb 5 lf, grain
  Gly (ppm): 0.05 ppm
[19]; 1.5 lb 5 lf, straw
  Gly (ppm): 0.05 ppm
[19]; 2 × 1.12 lb, 5 lf/pan ini, grain
  Gly (ppm): 3.00 ppm
[19]; 2 × 1.12 lb, 5 lf/pan ini, straw
  Gly (ppm): 3.10 ppm
[19]; 3 × 1.12 lb, 5 lf/pan ini/PH, grain
  Gly (ppm): 14.80 ppm
[19]; 3 × 1.12 lb, 5 lf/pan ini/PH, straw
  Gly (ppm): 6.90 ppm
[20]; 1× glyphosate at 4DAI, lesions already present at treatment
  development of pustules: no development of pustules
[20]; wheat 3-leaf stage, 1× glyphosate after inoculation, untreated/surfactant between 10% and about 25%
  infection level: either no infection or no progression to an existing infection
[21]; hybrid corn, treatment #1 (pre-inoculation), 2× rate (1.5 lb./A), 1=resistant, 9=susceptible, control 4.1
  average disease rating: 3.6
[21]; hybrid corn, treatment #1 (pre-inoculation), 3× rate (2.25 lb./A), control 4.1
  disease rating: 3.0
[21]; hybrid corn, treatment #2 (14 days post inoculation), control 4.1
  disease rating: 4.1
[21]; hybrid corn, treatment #3 (28 days post inoculation), control 4.1
  disease rating: 3.9
[21]; inbred corn, post inoculation treatments, second value
  disease rating: 4.9
[21]; inbred corn, post inoculation treatments
  disease rating: 4.4
[21]; inbred corn, treatment #1 (pre-inoculation), 2× rate, controls 5.0 and 4.9
  average disease rating: 4.0
[21]; inbred corn, treatment #1 (pre-inoculation), 3× rate, controls 5.0 and 4.9
  average disease rating: 3.2
[22]
  In vitro EC90, ppm: <100 ppm
[23]; 0.75 lb, 4 lf, forage
  Gly (ppm): 2.30 ppm
[23]; 0.75 lb, 4 lf, grain
  Gly (ppm): 0.50 ppm
[23]; 0.75 lb, 4 lf, hay
  Gly (ppm): 1.20 ppm
[23]; 0.75 lb, 4 lf, straw
  Gly (ppm): 0.50 ppm
[23]; 2 × 0.75 lb, 4 lf/Preboot, forage
  Gly (ppm): 2.60 ppm
[23]; 2 × 0.75 lb, 4 lf/Preboot, grain
  Gly (ppm): 7.50 ppm
[23]; 2 × 0.75 lb, 4 lf/Preboot, hay
  Gly (ppm): 13.00 ppm
[23]; 2 × 0.75 lb, 4 lf/Preboot, straw
  Gly (ppm): 5.30 ppm
[24]; V4/V8, forage
  Gly (ppm): 0.73 ppm
[24]; V4/V8, grain
  Gly (ppm): 0.07 ppm
[24]; V4/V8, stover
  Gly (ppm): 1.30 ppm
[25]
  Ki: 500 nM
[26]
  In vitro EC90, ppm: <100 ppm
[27]
  In vitro EC90, ppm: 1000 ppm
[28]
  In vitro EC90, ppm: 1000 ppm
[29]
  Gly (ppm): 1.60 ppm
